According to patent US20120309716A1, “Motor Function Improver” (Kao Corporation, priority 2010, published 2012):

What was measured:
mice [1] = assay: Swimming endurance (limit swimming time in flowing water pool); format: in vivo, mouse; details: 0.25% sphingomyelin diet and exercise, five weeks after beginning of administration, flow rate 7 L/min
Description: (§1) After preliminary rearing for one week, nine-week old BALE/c male mice (Charles River Laboratories Japan Inc.) were classified into three groups (a Cont group, an Ex group, and an SPM group) (eight mice in each group) such that each group had the same body weight and swimming endurance (determined by measuring a limit swimming time by using a flowing water pool for mice (Kyodai Matsumoto type flowing water tank for measuring an amount of exercise: length×width×depth=90×45×45 cm, water depth: 38 cm, water temperature: 34° C. (Matsumoto, J Appl Physiol. 81: 1843-1849, 1996)) by the below-mentioned method).
After grouping, the mice of the Cont group and the Ex group were fed with a control feed (10% lipid, 20% casein, 55.5% potato starch, 8.1% cellulose, 0.2% methionine, 2.2% vitamin (product name: Vitamin mix AIN-76, Oriental Bioservice, Inc.), and 4% mineral (product name: Mineral mix AIN-76, Oriental Bioservice, Inc.)), and the mice of the SPM group were fed with a test feed containing the sphingomyelin prepared in Production Example 1 (10% lipid, 20% casein, 55.25% potato starch, 8.1% cellulose, 0.2% methionine, 2.2% vitamin, 4% mineral, and 0.25% sphingomyelin) each for 13 weeks.
During the feeding period, the limit swimming time was measured for the mice of the Ex group and the SPM group using the flowing water pool for mice once a week. […]

PGC-1α = assay: Expression of gastrocnemius muscle mitochondrial function-related gene (quantitative PCR); format: in vivo; details: mouse gastrocnemius muscle after 13 weeks of rearing, 0.25% sphingomyelin test feed; control group 1.17 ± 0.10; p < 0.05
Description: (§2) After that, the mice were fed with a control feed (10% lipid, 20% casein, 55.5% potato starch, 8.1% cellulose, 0.2% methionine, 2.2% vitamin (product name: Vitamin mix AIN-76, Oriental Bioservice, Inc.), and 4% mineral (product name: Mineral mix AIN-76, Oriental Bioservice, Inc.)) or a test feed containing the sphingomyelin (10% lipid, 20% casein, […], 8.1% cellulose, 0.2% methionine, 2.2% vitamin, 4% mineral, and 0.25% sphingomyelin) each for nine weeks, and a respiratory gas analysis was carried out at the tenth week.
After 13 weeks of rearing, the gastrocnemius muscle of a mouse of each group was collected, and RNA samples were obtained using RNeasy Fibrous Tissue Mini Kit (Qiagen). Each RNA sample was quantified, and a reverse transcription reaction was carried out in a reaction solution (1×PCR buffer II (Applied Biosystems), 5 mM MgCl2, 1 mM dNTP mix, 2.5 μM Oligo d [T]18 (New England Biolabs) and 1 U/ml RNase inhibitor (TAKARA BIO INC.) for 125 ng of RNA per reaction, to thereby obtain cDNA. The reaction was carried out under conditions of 42° C. and 10 min, 52° C. and 30 min, and 99° C. and 5 min.
Quantitative PCR was carried out using the thus obtained cDNA as a template by ABI PRISM 7700 Sequence Detector (Applied Biosystems) The results were corrected based on the expression amount of 36B4 mRNA and represented as relative mRNA expression amounts. […]

isolated soleus muscle = assay: Suppression of muscle strength deterioration after tail suspension treatment (isolated soleus muscle); format: in vivo, mouse; details: mice, 0.25% sphingomyelin diet for two weeks, then seven days of tail suspension; SPM group vs Cont group
Description: After preliminary rearing for one week, BALB/c male mice (nine-week old) were classified into three groups (a Normal group, a Cont group, and an SPM group) based on their weights (n=8 in each group). After grouping, the mice of the Normal group and the Cont group were fed with a control feed (10% lipid, 20% casein, 55.5% potato starch, 8.1% cellulose, 0.2% methionine, 2.2% vitamin, and 4% mineral), and the mice of the SPM group were fed with a test feed containing the sphingomyelin prepared in Production Example 1 (10% lipid, 20% casein, 55.25% potato starch, 8.1% cellulose, 0.2% methionine, 2.2% vitamin, 4% mineral, and 0.25% sphingomyelin) each for two weeks. The mice were fed with the test feed for two weeks, and the mice of the Cont group and the SPM group were subject to a tail suspension treatment to exclude a gravity load on their hindlimb muscles (such as soleus muscle). […] The mice of the Normal group were not subjected to the tail suspension treatment. After seven days of the tail suspension treatment, the mice were subjected to anatomy, and muscle strength of the isolated soleus muscle was measured. The muscle strength of the isolated muscle was measured in the same way as in Test Example 1.

mice [2] = assay: Respiratory gas analysis (energy consumption and lipid combustion); format: in vivo, mouse; details: average in 24 hours after nine weeks of rearing, 0.25% sphingomyelin test feed
Description: After preliminary rearing for one week, nine-week old BALB/c mice (male: Oriental Bioservice, Inc.) were classified into two groups (eight mice in each group) such that each group had the same body weight.
as §2
The mice were transferred to a chamber for respiratory gas analysis and habituated to the environment for 48 hours, and oxygen consumption level and respiratory quotient of each mouse were measured over 24 hours using Arco-2000 system (ARCOSYSTEM Inc.). […] From the oxygen consumption level and respiratory quotient, the lipid combustion level was calculated by an equation of Peronnet (Peronnet F, and Massicotte D (1991) Can J Sport Sci 16:23-29.).

[3] = tested on: isolated soleus muscle and extensor digitorum longus muscle; assay: Muscle strength of isolated soleus and extensor digitorum longus muscle after 13 weeks of rearing with exercise; format: in vivo, mouse; details: mice, 0.25% sphingomyelin diet and exercise, electrical stimulation 40 Hz, 330 ms, 10V
Description: as §1, with “method). […] After 13 weeks of rearing, the mice were subjected to anatomy, muscle strength of isolated soleus muscle and extensor digitorum longus muscle was measured. Muscle strength of the isolated muscle was measured according to a method by Cannon et al. (Biomed Sci Instrum, 2005). […] Electrical stimulation of 40 Hz, 330 ms, and 10V was applied by using two platinum electrodes, and a signal obtained from the transducer was determined as muscle strength (g/mg muscle).” for “method).”

sphingomyelin
swimming endurance (limit swimming time) (mice [1]): significant improvement in endurance | PGC-1α relative mRNA expression amount (corrected based on 36B4 mRNA) (PGC-1α): 1.50 ± 0.15 | muscle strength of the isolated soleus muscle (isolated soleus muscle): significantly higher value | Lipid combustion level (mice [2]; calculated by equation of Peronnet, control group 5.4 ± 0.7, p < 0.05): 7.5 ± 0.7 mg/kg/min | Oxygen consumption level (mice [2]; control group 55.0 ± 1.0, p < 0.05): 58.2 ± 0.8 mL/min/kg | muscle strength of the extensor digitorum longus muscle [3]: significantly higher values | muscle strength of the soleus muscle [3]: significantly higher values
